From US9700043B2, “Corrosive ingredient(s)-containing compositions having reduced toxicity and method of obtaining” (S. C. Johnson & Son, Inc., priority 2014, dated 2017)

Tested on: bovine cornea
Assay: Bovine cornea opacity and permeability (BCOP) ocular irritation assay
Conditions: mean data, Conc. neat, exposure time 10 minutes
Method: Products including one or more ingredients which are corrosive in nature and present in a product at a level which normally cause ocular irritation are modified to have reduced ocular irritation without replacing the corrosive ingredient(s) and without reducing the amount of the corrosive ingredient(s) used in a product. The level of corrosiveness or the hazards of a product is determined under EPA regulations. EPA toxicity testing is based on determining the level of ocular irritation caused by a product. This EPA standard is used herein to evidence the reduced corrosive nature of products of the invention. The test used is the bovine cornea opacity and permeability (BCOP) method which is an Organization for Economic Co-operation and Development (OECD) validated method for assessing ocular irritation and has recently been accepted by the EPA as an alternative to the traditional Draize animal test. The BCOP test method is described in the “OECD Guidelines For The Testing Of Chemicals”, No. 437, adopted Jul. 26, 2013 and entitled “Bovine Corneal Opacity and Permeability Test Method for Identifying i) Chemicals Inducing Serious Eye Damage and ii) Chemicals Not Requiring Classification for Eye Irritation or Serious Eye Damage”. […]
Step 3—Initial Opacity. The cMEM is removed and refilled and the initial opacity is read on an opacitometer. […]
Step 5—Rinsing. Corneas are rinsed thoroughly to remove the test substance and incubated for two (2) hours before a final opacity reading. […]
Formulas of the same ingredients as in Example 4 were also tested with lower or higher amounts of CARBOPOL® EZ-2 with respective adjustments in the water concentration. […] The viscosities of the 0.25% solution was ˜4 cps, of the 0.55% solution ˜10 cps, of the 0.75% solution ˜200 cps, of the 1.0% solution (shown above) ˜8,000 cps, (each of the former being measured by Brookfield LVT, spindle 1, speed 30 rpm) and of the 1.25% solution ˜18,700 cps (being measured by Brookfield LVT, spindle 4, speed 30 rpm). […]

With `CCO` [Ethanol (Control), Ethanol] the “OD490 Value” (fluorescein permeability) was 0.899, the “Opacity Value” (n=3 corneas per sample) was 28.7 and the “In Vitro Score” value (EPA: score ≧75 = Category I) was 42.2.
